Test results reported in US10201587B2, “Methods of inhibiting and treating biofilms using glycopeptide antibiotics” (MELINTA THERAPEUTICS, INC., priority 2008, dated 2019).
Values after ≈ are worked out from the molar mass of the structure shown. Like-named read-outs stand apart in the source and are kept apart here.

Legend:
[1] = tested on: S. aureus ATCC 29213; assay: Membrane permeability, SYTO-9/propidium iodide fluorescence; assay type: cell-based; settings: stationary-phase cells, 30 min
Protocol: For membrane permeability assays, bacteria were prepared identically as described above for the membrane depolarization assay with the exception that SYTO-9 and propidium iodide (Invitrogen Corporation) were added at 5 μM and 30 μM, respectively. Experiments were repeated three times and produced similar results; results from one assay are presented.

[2] = tested on: stationary-phase MRSA ATCC 43300; assay: Ultrastructure by transmission electron microscopy of thin sections; assay type: cell-based, S. aureus; settings: 3 hours in nutrient-depleted CAMHB; 1 μg/mL oritavancin, 16 μg/mL vancomycin
Protocol: Bacteria were fixed in 2.5% glutaraldehyde to cross-link proteins and help preserve morphological structure. Prior to embedding, the samples were treated with fresh 2.5% (vol/vol) glutaraldehyde in HEPES buffer (pH, 6.8) for 2 hours. The samples were then post-fixed in 2.0% (wt/vol) osmium tetroxide, followed by en bloc-staining with 2.0% (wt/vol) uranyl acetate, as a heavy-metal stain, to add contrast to the cells. The cells were then dehydrated through a series of ethanol washes then embedded in LR White resin. Once polymerized by curing, each culture sample was thin sectioned and stained by uranyl acetate and lead citrate so as to view the internal cellular constituents and the juxtaposition of cell envelope layers such as the plasma membrane and cell wall. Transmission electron microscopy was used to view the thin sections using a Philips CM10 under standard operating conditions at 100 kV.

[3] = tested on: MRSA ATCC 33591; assay: MBEC system in vitro biofilm (MIC and MBEC); assay type: cell-based, S. aureus
Protocol: (§1) The commercially-available MBEC™ system (Innovotech; Edmonton, AB, Canada) was used following the manufacturer's protocol (17) to establish in vitro biofilms of S. aureus and to determine the minimal biofilm eradication concentration (MBEC) of oritavancin and comparator antimicrobial agents. The MBEC represents the concentration of antimicrobial agent required to sterilize the biofilm after 24 hours of exposure. The MBEC™ system also allows for the determination of the minimal inhibitory concentration (MIC) of the test agent against planktonic cells under the conditions of the biofilm assay.
(§2) 150 μL of bacterial inocula at 10^7 CFU/mL in tryptic soy broth was aliquoted into each well of an MBEC plate. Biofilms were established for 24 hours in a rotary incubator at 37° C. and 150 rpm. For experiments involving 72-hour biofilms, peg lids were transferred each day to 96-well plates containing 150 μL/well of fresh tryptic soy broth and incubated another 24 hours. Peg lids with established biofilms were washed once in sterile saline (200 μL/well) and then placed in plates containing antimicrobial agents diluted in CAMHB (200 μL/well). Antimicrobial agents were serially diluted in CAMHB in 96-well plates and peg lids were exposed for 24 hours or for the indicated times. Following antimicrobial challenge, peg lids were washed once in sterile saline then placed in recovery plates containing CAMHB (200 μL/well). The recovery plates were sonicated for 5 minutes in an ultrasonic sonicating bath (VWR Aquasonic model 550D) at the maximum setting then incubated for 24 hours and the MBECs recorded. MBECs were determined from at least three independent experiments; results represent the ranges of MBECs obtained. To enumerate the biofilm colony forming units (CFUs) on individual control pegs, pegs were broken off the lid using sterile forceps placed in 1 ml sterile saline, sonicated for 5 min and vortexed for 1 min at the highest setting. Bacteria were then enumerated by serial-dilution plating.
(§3) To prevent loss of oritavancin due to binding to vessel surfaces (3), the CLSI now recommends inclusion of 0.002% polysorbate-80 for oritavancin broth microdilution MIC determinations (9).

[4] = tested on: MSSA ATCC 29213; assay: MBEC system in vitro biofilm (MIC and MBEC); assay type: cell-based, S. aureus; settings: for MIC: Staphylococcus aureus
Protocol: as §1, §2, §3

[5] = tested on: VRSA VRS5; assay: MBEC system in vitro biofilm (MIC and MBEC); assay type: cell-based, S. aureus
Protocol: as §1, §2, §3

[6] = tested on: S. aureus strains (MSSA ATCC 29213, MRSA ATCC 33591, VRSA VRS5); assay: MBEC system in vitro biofilm, statements over all three strains; assay type: cell-based; settings: 24-hour biofilm
Protocol: as §1
150 μL of bacterial inocula at 10^7 CFU/mL in tryptic soy broth was aliquoted into each well of an MBEC plate. Biofilms were established for 24 hours in a rotary incubator at 37° C. and 150 rpm. For experiments involving 72-hour biofilms, peg lids were transferred each day to 96-well plates containing 150 μL/well of fresh tryptic soy broth and incubated another 24 hours. […] The recovery plates were sonicated for 5 minutes in an ultrasonic sonicating bath (VWR Aquasonic model 550D) at the maximum setting then incubated for 24 hours and the MBECs recorded. MBECs were determined from at least three independent experiments; results represent the ranges of MBECs obtained. […]

[7] = tested on: S. epidermidis ATCC 35984; assay: MBEC plate biofilm eradication, agents in combination; assay type: cell-based
Source text: The following strains were used for in vitro biofilm studies: vancomycin (VAN)-susceptible Enterococcus faecalis ATCC 29212 (VSE), VAN-resistant E. faecalis ATCC 51299 (VanB VRE), E. faecium ATCC 51559 (VanA VRE), S. epidermidis ATCC 12228 and the slime-producing strain S. epidermidis ATCC 35984. Biofilms were established in MBEC™ Physiology & Genetics Assay plates (Innovotech; Edmonton, Canada).

[8] = humans, cited from earlier work
[9] = 24-hour biofilm, 24 hours of exposure, oritavancin without polysorbate-80
[10] = standard dose (oritavancin 200 mg)

CN[C@H](CC(C)C)C(=O)N[C@H]1C(=O)N[C@@H](CC(N)=O)C(=O)N[C@H]2C(=O)N[C@H]3C(=O)N[C@H](C(=O)N[C@H](C(=O)O)c4cc(O)cc(O)c4-c4cc3ccc4O)[C@H](O[C@H]3C[C@](C)(N)[C@@H](O)[C@H](C)O3)c3ccc(c(Cl)c3)Oc3cc2cc(c3O[C@@H]2O[C@H](CO)[C@@H](O)[C@H](O)[C@H]2O[C@H]2C[C@](C)(NCc3ccc(-c4ccc(Cl)cc4)cc3)[C@@H](O)[C@H](C)O2)Oc2ccc(cc2Cl)[C@H]1O [Oritavancin, N-(4-(4-chlorophenyl)benzyl)A82846B]
membrane permeability (SYTO-9 fluorescence) [1]: increased membrane permeability
septal mid-line staining [2]: conspicuously absent
MBEC [3, 9]: 0.5 to 4 µg/mL
MIC ([3]; Staphylococcus aureus, 24 h): 0.5 to 4 mg/L (≈ 0.279 to 2.23 µM)
MBEC ([4]; 24-hour biofilm, 1 hour exposure): 4 µg/mL
MBEC [4, 9]: 2 to 4 µg/mL
MBEC ([4]; 72-hour biofilms): 8 to 32 µg/mL
MBEC relative to respective planktonic MIC ([4]; 72-hour biofilms, within each experiment): no more than one doubling dilution higher
planktonic MIC relative to CLSI quality control range ([4]; MBEC assay): within quality control range
MIC ([4]; 24 h): 2 mg/L (≈ 1.12 µM)
MIC ([4]; 72 h, read-out: planktonic MIC): 4 to 32 mg/L (≈ 2.23 to 17.8 µM)
MBEC [5, 9]: 2 to 8 µg/mL
MIC ([5]; Staphylococcus aureus, VRSA, 24 h): 2 to 8 mg/L (≈ 1.12 to 4.46 µM)
MBEC ([6]; all three S. aureus strains): 2 to 8 µg/mL
MBEC relative to respective planktonic MIC ([6]; in each experiment): within one doubling dilution
MBEC in combination ([7]; combination of ORI and MOX required for sterilization): 4 mg/L
MBEC in combination ([7]; combination of ORI and RFB required for sterilization): 4 mg/L
predicted fCmax 800 in plasma ([8]; single 800 mg dose): 16 µg/mL
estimated fCmax in plasma [8, 10]: 4 µg/mL
estimated free trough concentration in plasma [8, 10]: 0.5 µg/mL
